Assay [1] concerns the target T1, ABHD6 (Mus musculus, UniProt Q8R2Y0).
T1 construct: Brain; from tissue; host or cells: mouse brain proteome
T1 sequence (Q8R2Y0 1-336): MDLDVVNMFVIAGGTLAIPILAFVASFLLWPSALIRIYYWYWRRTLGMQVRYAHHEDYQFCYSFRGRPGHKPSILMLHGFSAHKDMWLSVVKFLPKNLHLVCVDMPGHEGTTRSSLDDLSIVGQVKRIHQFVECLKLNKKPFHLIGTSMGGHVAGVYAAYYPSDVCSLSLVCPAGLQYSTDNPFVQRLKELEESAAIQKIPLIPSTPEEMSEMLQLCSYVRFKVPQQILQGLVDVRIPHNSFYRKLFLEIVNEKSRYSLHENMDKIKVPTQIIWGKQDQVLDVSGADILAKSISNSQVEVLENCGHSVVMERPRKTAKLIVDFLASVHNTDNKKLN
Briefly: In vitro competitive activity-based protein profiling, mouse brain proteome (ABHD6). Format: biochemical. The conditions noted are these: mouse brain proteome; concentration not given (μM). Here is the method: [The source words this procedure for another target and reports this target under the same test.] In Vitro Competitive Activity-Based Protein Profiling.
Proteomes (human prefrontal cortex or cell membrane fractions) (50 μL, 1.0 mg/mL total protein concentration) were preincubated with varying concentrations of inhibitors at 37° C. After 30 min, FP-Rh or HT-01 (1.0 μL, 50 μM in DMSO) was added and the mixture was incubated for another 30 min at room temperature. Reactions were quenched with SDS loading buffer (15 μL-4×) and run on SDS-PAGE.

For assay [2], the target named is T2, MGLL (Mus musculus, UniProt O35678).
T2 construct: Brain; from tissue; host or cells: mouse brain proteome
T2 sequence (O35678 1-303): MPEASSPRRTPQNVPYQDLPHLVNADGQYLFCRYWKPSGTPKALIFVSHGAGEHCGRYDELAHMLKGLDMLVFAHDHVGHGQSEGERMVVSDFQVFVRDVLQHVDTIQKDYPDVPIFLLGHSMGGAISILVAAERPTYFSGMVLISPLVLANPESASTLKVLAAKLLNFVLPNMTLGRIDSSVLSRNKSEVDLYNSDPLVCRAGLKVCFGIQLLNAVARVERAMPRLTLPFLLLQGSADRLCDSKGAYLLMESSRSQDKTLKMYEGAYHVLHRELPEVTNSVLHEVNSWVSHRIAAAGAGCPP
As to the kind of experiment: In vitro competitive activity-based protein profiling, mouse brain proteome (MGLL). Format: biochemical. To be noted: concentration not given (μM).

As for `CN1CC2(CCN(c3cc(C(F)(F)F)ccc3CN3CCN(C(=O)OC(C(F)(F)F)C(F)(F)F)CC3)C2)C1` [Example 179, 1,1,1,3,3,3-Hexafluoropropan-2-yl 4-(2-(2-methyl-2,6-diazaspiro[3,4]octan-6-yl)-4-(trifluoromethyl)benzyl) piperazine-1-carboxylate], in assay [1], the “% Inh ABHD6 Brain (Mouse, μM)” value is “# (# is ≤25%)”. Also, the “% Inh MGLL Brain (Mouse, μM)” value in assay [2] was “### (### is ≥75%)”.
For `O=C(OC(C(F)(F)F)C(F)(F)F)N1CCC2(CC1)CN(Cc1ccccc1F)C2` [Example 98, 1,1,1,3,3,3-Hexafluoropropan-2-yl 2-(2-fluorobenzyl)-2,7-diazaspiro[3.5]nonane-7-carboxylate] the same measures were “### (### is ≥75%)” and “### (### is ≥75%)”.
With `CS(=O)(=O)N1CCC2(CCN(c3cc(C(F)(F)F)ccc3CN3CCN(C(=O)OC(C(F)(F)F)C(F)(F)F)CC3)C2)CC1` [Example 196, 1,1,1,3,3,3-Hexafluoropropan-2-yl 4-(2-(8-(methylsulfonyl)-2,8-diazaspiro[4.5]decan-2-yl)-4-(trifluoromcthyl)benzyl)pipera zinc-1-carboxylate], in assay [1], the “% Inh ABHD6 Brain (Mouse, μM)” value is “# (# is ≤25%)”. In addition, the “% Inh MGLL Brain (Mouse, μM)” value in assay [2] is recorded as “### (### is ≥75%)”.
Taken in the same sequence, the figures for `CN(Cc1ccc(C(F)(F)F)cc1N1CCOCC1)C1(C)CCN(C(=O)OC(C(F)(F)F)C(F)(F)F)CC1` [Example 63, 1,1,1,3,3,3-Hexafluoropropan-2-yl 4-methyl-4-(methyl(2-morpholino-4-(trifluoromethyl)benzyl)amino) piperidine-1-carboxylate] were “### (### is ≥75%)” and “### (### is ≥75%)”.
For `O=C(OC(C(F)(F)F)C(F)(F)F)N1CCC2(CC1)CN(Cc1ccc(N3CCOCC3)cc1Cl)C2` [Example 79, 1,1,1,3,3,3-Hexafluoropropan-2-yl 2-(2-chloro-4-morpholinobenzyl)-2,7-diazaspiro[3.5]nonane-7-carboxylate] the same measures were “### (### is ≥75%)” and “### (### is ≥75%)”.
In the case of `CC(=O)N1CC2(CCN(c3ccccc3CN3CCCCC34CCN(C(=O)OC(C(F)(F)F)C(F)(F)F)CC4)C2)C1` [Example 229, 1,1,1,3,3,3-Hexafluoropropan-2-yl 1-(2-(2-acetyl-2,6-diazaspiro[3,4]octan-6-yl)benzyl)-1,9-diazaspiro[5.5]undecane-9-carboxylate], the “% Inh ABHD6 Brain (Mouse, μM)” value in assay [1] is on record as “# (# is ≤25%)”. Further, the “% Inh MGLL Brain (Mouse, μM)” value in assay [2] was “## (## is between 25 and 75%)”.
On to `CCN1CCCc2cccc(CN3CCC4(CC3)CN(C(=O)OC(C(F)(F)F)C(F)(F)F)C4)c21` [Example 31, 1,1,1,3,3,3-Hexafluoropropan-2-yl 7-((1-ethyl-1,2,3,4-tetrahydroquinolin-8-yl)methyl)-2,7-diazaspiro[3.5]nonane-2-carboxylate], for which the “% Inh ABHD6 Brain (Mouse, μM)” value in assay [1] is on record as “### (### is ≥75%)”. In addition, the “% Inh MGLL Brain (Mouse, μM)” value in assay [2] is “## (## is between 25 and 75%)”.
As for `CCN1CCN(c2cccc(C(F)(F)F)c2CN2CC3(CCN(C(=O)OC(C(F)(F)F)C(F)(F)F)CC3)C2)CC1` [Example 54, 1,1,1,3,3,3-Hexafluoropropan-2-yl 2-(2-(4-ethylpiperazin-1-yl)-6-(trifluoromethyl)benzyl)-2,7-diazaspiro[3.5]nonane-7-carboxylate], in assay [1], the “% Inh ABHD6 Brain (Mouse, μM)” value is “# (# is ≤25%)”. Moreover, the “% Inh MGLL Brain (Mouse, μM)” value in assay [2] is on record as “### (### is ≥75%)”.
Take `O=C(OC(C(F)(F)F)C(F)(F)F)N1CCC2(CC1)CN(Cc1c(Cl)cccc1N1CCC(F)CC1)C2` [Example 47, 1,1,1,3,3,3-Hexafluoropropan-2-yl 2-(2-chloro-6-(4-fluoropiperidin-1-yl)benzyl)-2,7-diazaspiro[3.5]nonane-7-carboxylate]: the “% Inh ABHD6 Brain (Mouse, μM)” value in assay [1] is on record as “### (### is ≥75%)”. Besides, the “% Inh MGLL Brain (Mouse, μM)” value in assay [2] is “### (### is ≥75%)”.
In the case of `CC(=O)N1CC2CN(c3cc(C(F)(F)F)ccc3CN3CCN(C(=O)OC(C(F)(F)F)C(F)(F)F)CC3)CC2C1` (stereo not drawn) [Example 200, 1,1,1,3,3,3-Hexafluoropropan-2-yl 4-(2-(5-acetylhexahydropyrrolo[3,4-c]pyrrol-2(lH)-yl)-4-(trifluoromethyl)benzyl)pipera zine-l-carboxylate], the “% Inh ABHD6 Brain (Mouse, μM)” value in assay [1] was “# (# is ≤25%)”. In assay [2], the “% Inh MGLL Brain (Mouse, μM)” value is “### (### is ≥75%)”.
On to `O=C(OC(C(F)(F)F)C(F)(F)F)N1CCC2(CCN(Cc3ccc(C(F)(F)F)cc3N3CCC(F)CC3)CC2)C1` [Example 192, 1,1,1,3,3,3-Hexafluoropropan-2-yl 8-(2-(4-fluoropiperidin-1-yl)-4-(trifluoromethyl)benzyl)-2,8-diazaspiro[4.5]decane-2-carboxylate], for which the “% Inh ABHD6 Brain (Mouse, μM)” value in assay [1] is listed as “# (# is ≤25%)”. The “% Inh MGLL Brain (Mouse, μM)” value in assay [2] is on record as “### (### is ≥75%)”.
For `O=C(OC(C(F)(F)F)C(F)(F)F)N1CCC2(CCN(Cc3ccc(C(F)(F)F)cc3N3CC4CCC(C3)O4)CC2)C1` [Example 190, 1,1,1,3,3,3-Hexafluoropropan-2-yl 8-(2-(8-oxa-3-azabicyclo[3.2.1]octan-3-yl)-4-(trifluoromethyl)benzyl)-2,8-diazaspiro[4.5]decane-2-carboxylate] the same measures were “# (# is ≤25%)” and “### (### is ≥75%)”.
With `CCN1CCC2(CCN(c3cc(C(F)(F)F)ccc3CN3CCN(C(=O)OC(C(F)(F)F)C(F)(F)F)CC3)CC2)C1` [Example 183, 1,1,1,3,3,3-Hexafluoropropan-2-yl 4-(2-(2-ethyl-2,8-diazaspiro[4.5]decan-8-yl)-4-(trifluoromethyl)benzyl) piperazine-1-carboxylate], the “% Inh ABHD6 Brain (Mouse, μM)” value in assay [1] is on record as “# (# is ≤25%)”. Further, the “% Inh MGLL Brain (Mouse, μM)” value in assay [2] is listed as “### (### is ≥75%)”.
Regarding `O=C(OC(C(F)(F)F)C(F)(F)F)N1CCC2(CC1)CN(Cc1cccc(C(F)(F)F)c1)C2` [Example 89, 1,1,1,3,3,3-Hexafluoropropan-2-yl 2-(3-(trifluoromethyl)benzyl)-2,7-diazaspiro[3.5]nonane-7-carboxylate], the “% Inh ABHD6 Brain (Mouse, μM)” value in assay [1] is listed as “### (### is ≥75%)”. The “% Inh MGLL Brain (Mouse, μM)” value in assay [2] was “### (### is ≥75%)”.
As to `CC(=O)N1CCC2(CC1)CCN(c1cc(Cl)cc(CN3CCCC34CN(C(=O)OC(C(F)(F)F)C(F)(F)F)C4)c1)C2` [Example 236, 1,1,1,3,3,3-Hexafluoroprupan-2-yl 5-(3-(8-acetyl-2,8-diazaspiro[4.5]decan-2-yl)-5-chlorobenzyl)-2,5-diazaspiro[3.4]octane-2-carboxylate], in assay [1], the “% Inh ABHD6 Brain (Mouse, μM)” value is “### (### is ≥75%)”. Moreover, the “% Inh MGLL Brain (Mouse, μM)” value in assay [2] was “### (### is ≥75%)”.
As to `CC(=O)N1CCCC12CCN(c1cc(Cl)ccc1CN1CCN(C(=O)OC(C(F)(F)F)C(F)(F)F)CC1)CC2` [Example 204, 1,1,1,3,3,3-Hexafluoropropan-2-yl 4-(2-(1-acetyl-1,8-diazaspiro[4.5]decan-8-yl)-4-chlorobenzyl)piperazine-l-carboxylate], in assay [1], the “% Inh ABHD6 Brain (Mouse, μM)” value is on record as “# (# is ≤25%)”. Further, in assay [2], the “% Inh MGLL Brain (Mouse, μM)” value is given as “### (### is ≥75%)”.
Taken in the same sequence, the figures for `O=C(OC(C(F)(F)F)C(F)(F)F)N1CCC2(CC1)CN(Cc1c(Cl)cccc1N1CCCC1)C2` [Example 42, 1,1,1,3,3,3-Hexafluoropropan-2-yl 2-(2-chloro-6-(pyrrolidin-1-yl)benzyl)-2,7-diazaspiro[3.5]nonane-7-carboxylate] were “### (### is ≥75%)” and “### (### is ≥75%)”.

The values are drawn from patent US11161856B2 (H. Lundbeck A/S, priority 2017, dated 2021).
